Consider 57 compounds from patent US9346769B2, “Tetrazolones as inhibitors of fatty acid synthase” (Infinity Pharmaceuticals, Inc., priority 2010, dated 2016).

In test [1] the target is T1, human FASN (Homo sapiens, UniProt P49327).
T1 construct: was purified from SKBR3 cells using procedures modified from those in Jayakumar et al; endogenous in cells; host or cells: SKBR3 human breast cancer cells (ATCC); Endogenous enzyme purified by ammonium sulfate precipitation and a mono Q column
Briefly: FASN Scintillation Proximity Flashplate Assay. The format is biochemical. The following applies: human FASN purified from SKBR3 cells; unstarred symbols. The procedure: Human FASN protein (SEQ ID NO. 1) was purified from SKBR3 cells using procedures modified from those in Jayakumar et al. PNAS 1995, 92:8695-8699. SKBR3 cells were obtained from ATCC and grown in DMEM high glucose medium supplemented with 10% FBS, 1 μg/mL bovine pancreas insulin, 100 U/mL penicillin and 100 µg/mL streptomycin. The confluent cells were trypsinized and washed three times with PBS buffer before frozen in liquid N2 and stored at −80° C. Frozen cells were thawed on ice and resuspended in lysis buffer (25 mM Tris-HCl, pH 7.0, 15 mM NaCl, 1 mM EDTA, and 1 mM DTT) with protease inhibitors. The cells were lysed by sonication, and the cell debris was removed by centrifugation at 20,000 rpm for 30 min. To the supernatant, neutralized saturated ammonium sulfate solution was added to a final concentration of 35%. The solution was left on ice for 1 hr, and the precipitated proteins were harvested by centrifugation at 20,000 rpm for 30 min. The proteins were redissolved in lysis buffer without NaCl and loaded on a mono Q column. Bound proteins were eluted with a linear gradient of NaCl in lysis buffer. Each fraction was analyzed by SDS-PAGE and FASN NADPH consumption assay. The fractions containing FASN were pooled and concentrated to 2-3 mg/mL. Glycerol was added to 20%, and the protein was frozen in liquid N2 and stored at −80° C.
Acetyl-coenzyme A, malonyl-coenzyme A, NADPH, bovine gamma globulin, and ORLISTAT were purchased from Sigma (St. Louis, Mo.). Tris(2-carboxyethyl) phosphine hydrochloride (TCEP) was purchased from Pierce Biotechnologies (Rockford, Ill.). [^3H]-acetyl-coenzyme A was purchased from Moravek Biochemicals (Brea, CA). FlashPlate™ PLUS phospholipid 96-well scintillant coated microplates were purchased from Perkin Elmer Life and Analytical Sciences (Shelton, CT). The method of the FASN Scintillation Proximity FlashPlate assay is similar to that described in Weiss and Glickman Assay Drug Dev Technol 2003, 1:161-6. In a 96-well polypropylene microplate, a dilution series (typical concentrations 60 nM-1.0 mM) of test compounds were prepared in DMSO followed by a 20-fold dilution into FASN assay buffer (50 mM potassium phosphate, pH 7.0, 1.0 mM EDTA, 0.01% NP-40), of which 5.0 μL each was transferred to a FlashPlate® PLUS 96-well plate and mixed with 35 μL FASN assay buffer plus 0.5 mg/mL bovine gamma globulin and 1 mM TCEP. FASN protein (10 μL, 10 nM) was added per well, and the microplate was incubated at 37° C. for 30 min. 10 μL of 20 mM NADPH was added, and the reaction was initiated by addition of […] substrate mixture to final concentrations of 1 nM FASN, 100 μM acetyl-coenzyme A, 6 μCi [^3H]-acetyl-coenzyme A, 300 μM malonyl-coenzyme A, 2 mM NADPH, 0.5 mg/mL bovine gamma globulin, and 1 mM TCEP in a volume of 100 μL per well. Assay plates were incubated for 2 hr at 37° C. and the reaction was stopped with 2 μL of 2.5 mM stock solution of ORLISTAT in DMSO to ˜50 μM. The plates were read in a Wallac 1450 Microbeta Plus liquid scintillation counter (Perkin Elmer, Waltham, Mass.), and counts per minute (CPM) were collected over 2 min. Each inhibitor well CPM was compared to the maximum FASN enzyme activity (Max) CPM and the background (Min) CPM, as measured by omission of FASN enzyme in the background well. % Inhibition values were calculated, and curves were fitted by a four-parameter logistic function to yield IC50 values:
Compounds were assayed as inhibitors of human FASN using the above-described FASN Scintillation Proximity Flashplate Assay (IC50; nM) or FASN NADPH Consumption Assay (*) (IC50; nM). The corresponding activity of the isolated compound is also provided along with the measured mass (ES^+).
A general note: SPA uses beads or plates that emit light when radiolabelled molecules are held near them.

For test [2], the target named is T1, human FASN. Description: FASN NADPH Consumption Assay. In kind it is biochemical. As to conditions: human FASN purified from SKBR3 cells; starred symbols. The method, boiled down:
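Native human FASN purified from SKBR3 cells (60 nM final) preincubated 30 min at 37 °C with compound (2.4 nM–40 μM, 4% DMSO) in pH 7.0 phosphate buffer with 5 mM DTT. Reaction started with 0.2 mM NADPH, 50 μM butyryl-CoA, 0.5 mM malonyl-CoA; NADPH consumption followed kinetically by fluorescence (ex 340/em 460 nm); IC50 from logistic fit.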

T1 sequence (P49327 whole entry): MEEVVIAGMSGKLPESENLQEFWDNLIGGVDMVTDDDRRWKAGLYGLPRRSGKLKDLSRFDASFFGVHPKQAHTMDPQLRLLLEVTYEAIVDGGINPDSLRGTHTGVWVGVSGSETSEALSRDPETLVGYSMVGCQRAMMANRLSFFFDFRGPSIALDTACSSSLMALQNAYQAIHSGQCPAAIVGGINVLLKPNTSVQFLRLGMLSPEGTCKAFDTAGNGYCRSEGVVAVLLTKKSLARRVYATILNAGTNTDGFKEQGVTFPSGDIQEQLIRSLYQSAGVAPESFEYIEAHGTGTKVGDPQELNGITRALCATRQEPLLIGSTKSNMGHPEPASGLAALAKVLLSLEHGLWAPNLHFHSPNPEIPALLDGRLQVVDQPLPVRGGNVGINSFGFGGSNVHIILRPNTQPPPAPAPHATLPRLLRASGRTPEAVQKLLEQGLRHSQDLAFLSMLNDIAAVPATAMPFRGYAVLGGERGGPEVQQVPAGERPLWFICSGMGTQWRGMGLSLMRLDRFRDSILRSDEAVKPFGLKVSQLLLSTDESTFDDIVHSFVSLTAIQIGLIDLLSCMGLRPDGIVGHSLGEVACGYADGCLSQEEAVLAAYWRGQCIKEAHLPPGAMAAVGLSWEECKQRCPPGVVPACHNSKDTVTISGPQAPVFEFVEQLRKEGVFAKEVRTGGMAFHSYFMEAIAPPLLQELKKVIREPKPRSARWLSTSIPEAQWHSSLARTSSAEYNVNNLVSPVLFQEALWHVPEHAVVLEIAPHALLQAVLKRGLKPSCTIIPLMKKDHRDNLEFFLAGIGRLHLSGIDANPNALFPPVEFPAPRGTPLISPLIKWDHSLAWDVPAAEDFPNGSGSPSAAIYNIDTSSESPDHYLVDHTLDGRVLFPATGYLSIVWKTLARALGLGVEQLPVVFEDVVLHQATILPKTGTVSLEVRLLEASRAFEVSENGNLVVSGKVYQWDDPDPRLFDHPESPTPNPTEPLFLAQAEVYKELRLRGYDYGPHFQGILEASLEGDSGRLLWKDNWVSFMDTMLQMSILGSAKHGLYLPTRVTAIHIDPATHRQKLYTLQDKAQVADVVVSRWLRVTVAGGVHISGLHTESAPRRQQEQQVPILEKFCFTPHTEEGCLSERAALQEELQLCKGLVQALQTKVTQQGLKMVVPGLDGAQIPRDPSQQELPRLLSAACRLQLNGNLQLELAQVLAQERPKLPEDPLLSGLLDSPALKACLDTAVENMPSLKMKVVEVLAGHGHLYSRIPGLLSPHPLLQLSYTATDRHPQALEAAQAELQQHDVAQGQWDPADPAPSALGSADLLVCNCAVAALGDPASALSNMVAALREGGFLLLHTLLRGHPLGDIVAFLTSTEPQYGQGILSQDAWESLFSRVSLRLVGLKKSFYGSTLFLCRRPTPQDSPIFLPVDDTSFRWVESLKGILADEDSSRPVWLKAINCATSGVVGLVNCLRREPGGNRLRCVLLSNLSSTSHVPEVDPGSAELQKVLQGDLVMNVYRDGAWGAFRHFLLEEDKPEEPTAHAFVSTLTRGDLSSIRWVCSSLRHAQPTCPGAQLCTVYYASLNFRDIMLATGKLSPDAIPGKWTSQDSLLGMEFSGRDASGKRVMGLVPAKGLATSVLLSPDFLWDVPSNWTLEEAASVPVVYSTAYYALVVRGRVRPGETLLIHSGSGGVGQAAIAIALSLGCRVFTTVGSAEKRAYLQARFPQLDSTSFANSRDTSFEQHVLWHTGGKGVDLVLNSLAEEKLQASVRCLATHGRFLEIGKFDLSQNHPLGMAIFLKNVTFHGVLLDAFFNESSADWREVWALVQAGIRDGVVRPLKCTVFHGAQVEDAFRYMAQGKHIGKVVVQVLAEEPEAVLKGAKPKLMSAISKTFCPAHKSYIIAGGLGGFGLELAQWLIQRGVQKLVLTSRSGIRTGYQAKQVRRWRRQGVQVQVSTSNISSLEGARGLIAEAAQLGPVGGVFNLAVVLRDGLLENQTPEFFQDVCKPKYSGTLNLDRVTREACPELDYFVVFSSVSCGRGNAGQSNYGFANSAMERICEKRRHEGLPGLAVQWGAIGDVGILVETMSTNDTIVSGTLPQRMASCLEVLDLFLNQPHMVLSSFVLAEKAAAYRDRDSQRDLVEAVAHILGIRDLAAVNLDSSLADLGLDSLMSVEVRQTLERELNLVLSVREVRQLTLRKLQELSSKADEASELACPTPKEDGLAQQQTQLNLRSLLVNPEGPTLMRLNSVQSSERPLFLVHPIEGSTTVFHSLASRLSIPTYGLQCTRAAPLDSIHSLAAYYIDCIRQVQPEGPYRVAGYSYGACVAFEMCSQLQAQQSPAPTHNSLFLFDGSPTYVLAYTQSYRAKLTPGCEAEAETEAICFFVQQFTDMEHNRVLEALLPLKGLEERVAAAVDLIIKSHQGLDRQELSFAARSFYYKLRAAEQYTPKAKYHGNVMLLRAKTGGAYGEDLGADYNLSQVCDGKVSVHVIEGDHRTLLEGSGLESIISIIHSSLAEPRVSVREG

Regarding `COc1ccc(N(C(=O)n2nnn(-c3ccccc3C#N)c2=O)C2CCCCC2)cc1C(=O)O`, at human FASN [1], the half-inhibitory concentration (IC50) (in general, the concentration needed to halve the response being measured) fell in the range of 100 to 200 nM.
Still for that read-out and setting: the result for `CCN(C(=O)n1nnn(-c2ccccc2Oc2ccccc2)c1=O)c1ccc(C(=O)O)cc1` reads under 15 nM; that for `CCN(C(=O)n1nnn(-c2c(F)cccc2F)c1=O)c1ccc(F)cc1F`, under 15 nM.
Same read-out and setting: with `CCN(C(=O)n1nnn(-c2c(F)cccc2F)c1=O)c1cc(C(=O)O)ccc1OC(C)C` the figure was 15 to 100 nM; with `COc1ccc(N(C(=O)n2nnn(-c3c(F)cccc3F)c2=O)C(C)C)cc1C(=O)OCc1ccccc1`, under 15 nM; with `CCNC(=O)Nc1ccc(N(CC)C(=O)n2nnn(-c3c(F)cccc3F)c2=O)c(F)c1`, under 15 nM.
Still for that read-out and setting: with `CCN(C(=O)n1nnn(-c2c(F)cccc2F)c1=O)c1ccc(N)cc1F` the figure was under 15 nM.
For the compound `CCN(C(=O)n1nnn(-c2c(F)cccc2F)c1=O)c1ccc(NC(C)=O)cc1F`, the IC50 at human FASN [1] is under 15 nM.
The same measure, in the same setting: with `O=C(O)COc1ccc(N(C(=O)n2nnn(-c3c(F)cccc3F)c2=O)C2CCCCC2)cc1` the figure was under 15 nM; with `O=C(O)[C@@H]1CCCN1c1ccc(N(C(=O)n2nnn(-c3c(F)cccc3F)c2=O)C2CCCCC2)cc1`, under 15 nM; with `CCN(C(=O)n1nnn(-c2c(F)cccc2F)c1=O)c1cc(C(=O)O)ccc1OCCc1ccccc1`, under 15 nM.
Same read-out and setting: the result for `CCN(C(=O)n1nnn(-c2c(F)cccc2F)c1=O)c1c(F)cccc1F` reads under 15 nM; that for `CCCCOc1ccc(C(=O)O)cc1N(CC)C(=O)n1nnn(-c2c(F)cccc2F)c1=O`, under 15 nM.
Same read-out and setting: with `CCN(C(=O)n1nnn(-c2c(F)cccc2F)c1=O)c1ccccc1F` the figure was under 15 nM; with `CCN(C(=O)n1nnn(-c2c(F)cccc2F)c1=O)c1ccc(NS(C)(=O)=O)cc1F`, under 15 nM.
`COc1ccc(C(=O)OCc2ccccc2)cc1N(CCCc1ccccc1)C(=O)n1nnn(-c2c(F)cccc2F)c1=O` had an IC50 against human FASN [1] of under 15 nM.
In turn, `CCN(C(=O)n1nnn(-c2c(F)cccc2F)c1=O)c1ccc(C(=O)O)cc1Oc1ccccc1` had an IC50 against human FASN [1] of under 15 nM.
The same measure, in the same setting: the result for `CCN(C(=O)n1nnn(-c2c(F)cccc2F)c1=O)c1ccccc1Oc1ccccc1` reads under 15 nM; that for `CCN(C(=O)n1nnn(-c2c(F)cccc2F)c1=O)c1ccc(OC)c(C(=O)O)c1`, 15 to 100 nM; that for `CCN(C(=O)n1nnn(-c2c(F)cccc2F)c1=O)c1ccc(C(=O)O)c(OC)c1`, under 15 nM.
Same read-out and setting: with `O=C(N(c1ccccc1)C1CCCCC1)n1nnn(-c2c(F)cccc2F)c1=O` the figure was under 15 nM; with `CCNC(=O)N1CCN(c2ccc(N(C(=O)n3nnn(-c4c(F)cccc4F)c3=O)C3CCCCC3)cc2C(=O)O)CC1`, under 15 nM; with `CCOC(=O)N1CCN(c2ccc(N(C(=O)n3nnn(-c4c(F)cccc4F)c3=O)C3CCCCC3)cc2C(=O)O)CC1`, under 15 nM.
Still for that read-out and setting: with `CCOC(=O)c1cc(C)n(-c2ccc(N(C(=O)n3nnn(-c4c(F)cccc4F)c3=O)C3CCCCC3)cc2C(=O)O)n1` the figure was under 15 nM.
With `CCOC(=O)c1cc(C)n(-c2ccc(N(C(=O)n3nnn(-c4c(F)cccc4F)c3=O)C3CCCCC3)cc2C(=O)OCc2ccccc2)n1`, the IC50 on human FASN [1] was under 15 nM.
Still for that read-out and setting: the result for `O=C(O)c1cc(N(C(=O)n2nnn(-c3c(F)cccc3F)c2=O)C2CCCCC2)ccc1OC(=O)N1CCOCC1` reads under 15 nM; that for `CS(=O)(=O)N1CCN(c2ccc(N(C(=O)n3nnn(-c4c(F)cccc4F)c3=O)C3CCCCC3)cc2C(=O)O)CC1`, under 15 nM; that for `COc1ccc(N(C(=O)n2nnn(-c3c(F)cccc3F)c2=O)C2CCCCC2)cc1C(=O)NC(C)(C)C(=O)O`, under 15 nM.
Still for that read-out and setting: the result for `CNC(=O)c1cc(N(C(=O)n2nnn(-c3c(F)cccc3F)c2=O)C2CCCCC2)ccc1OC` reads under 15 nM.
Turning to `CC(=O)N1CCN(c2ccc(N(C(=O)n3nnn(-c4c(F)cccc4F)c3=O)C3CCCCC3)cc2C(=O)O)CC1`, the IC50 against human FASN [1] is under 15 nM.
The same measure, in the same setting: the result for `Cc1ccc(C)n1-c1ccc(N(C(=O)n2nnn(-c3c(F)cccc3F)c2=O)C2CCCCC2)cc1C(=O)O` reads under 15 nM; that for `CCN1CCN(c2ccc(N(C(=O)n3nnn(-c4c(F)cccc4F)c3=O)C3CCCCC3)cc2C(=O)O)CC1`, 15 to 100 nM.
Regarding `COC(=O)c1cc(N(C(=O)n2nnn(-c3c(F)cccc3F)c2=O)C2CCCCC2)ccc1OC`, the IC50 on human FASN [1] is under 15 nM.
The same measure, in the same setting: with `COCCOc1ccc(N(C(=O)n2nnn(-c3c(F)cccc3F)c2=O)C2CCCCC2)cc1C(=O)O` the figure was under 15 nM; with `COc1ccc(N(C(=O)n2nnn(-c3c(F)cccc3F)c2=O)C2CCCCC2)cc1C(=O)N(C)C`, under 15 nM; with `COc1ccc(N(C(=O)n2nnn(-c3c(F)cccc3F)c2=O)C2CCCCC2)cc1C(N)=O`, under 15 nM.
On the same count and under the same terms, with `CC(C)(C)OC(=O)N1CCN(c2ccc(N(C(=O)n3nnn(-c4c(F)cccc4F)c3=O)C3CCCCC3)cc2C(=O)O)CC1` the figure was under 15 nM; with `CC(C)(C)OC(=O)N1CCN(c2ccc(N(C(=O)n3nnn(-c4c(F)cccc4F)c3=O)C3CCCCC3)cc2C(=O)OCc2ccccc2)CC1`, under 15 nM.
Same read-out and setting: the result for `O=C(O)c1cc(N(C(=O)n2nnn(-c3c(F)cccc3F)c2=O)C2CCCCC2)ccc1N1CCOCC1` reads 15 to 100 nM.
As for `CCNC(=O)N1CCC(N(CC)C(=O)n2nnn(-c3c(Cl)cccc3Cl)c2=O)CC1`, on human FASN [2], the IC50 was 1000 to 10000 nM.
The compound `CN(C(=O)n1nnn(-c2ccccc2Cl)c1=O)C1CCCCC1` yielded an IC50 against human FASN [2] of 1000 to 10000 nM.
In turn, `CCN(C(=O)n1nnn(-c2ccccc2C(C)C)c1=O)C1CCCCC1` gave an IC50 on human FASN [2] of 1000 to 10000 nM.
Same read-out and setting: with `CCN(C(=O)n1nnn(-c2ccccc2C)c1=O)C1CCCCC1` the figure was 1000 to 10000 nM.
Still for that read-out and setting: with `CCCN(C(=O)n1nnn(-c2ccccc2Cl)c1=O)C1CCCCC1` the figure was 1000 to 10000 nM; with `CCN(C(=O)n1nnn(-c2ccc([N+](=O)[O-])cc2)c1=O)C1CCCCC1`, 1000 to 10000 nM.
On to `CCN(C(=O)n1nnn(-c2ccc(OC)cc2)c1=O)C1CCCCC1`, for which, at human FASN [2], the IC50 is over 10000 nM.
Compound `CCN(C(=O)n1nnn(-c2ccc(C(F)(F)F)cc2)c1=O)C1CCCCC1` showed an IC50 against human FASN [2] of over 10000 nM.
On the same count and under the same terms, the result for `CCN(C(=O)n1nnn(-c2ccc(Cl)cc2)c1=O)C1CCCCC1` reads over 10000 nM; that for `CCN(C(=O)n1nnn(-c2ccc(N(C)C)cc2)c1=O)C1CCCCC1`, 1000 to 10000 nM; that for `CCN(C(=O)n1nnn(-c2ccc(F)cc2)c1=O)C1CCCCC1`, over 10000 nM.
On the same count and under the same terms, the result for `CCN(C(=O)n1nnn(-c2cccc(F)c2)c1=O)C1CCCCC1` reads over 10000 nM.
Still for that read-out and setting: the result for `CCN(C(=O)n1nnn(-c2cccc(OC)c2)c1=O)C1CCCCC1` reads over 10000 nM.
In turn, `CCN(C(=O)n1nnn(-c2cccs2)c1=O)C1CCCCC1` displayed an IC50 at human FASN [2] of 1000 to 10000 nM.
On the same count and under the same terms, with `CCN(C(=O)n1nnn(-c2ccsc2)c1=O)C1CCCCC1` the figure was over 10000 nM; with `CCN(C(=O)n1nnn(-c2c(C)nn(C)c2C)c1=O)C1CCCCC1`, over 10000 nM; with `CCN(C(=O)n1nnn(-c2c(C)noc2C)c1=O)C1CCCCC1`, over 10000 nM.
The same measure, in the same setting: the result for `CC(C)(C)OC(=O)N(C(=O)n1nnn(-c2c(F)cccc2F)c1=O)c1ccco1` reads 1000 to 10000 nM.
